Key:
B-Raf = B-Raf (Homo sapiens, UniProt P15056); experiment: Kinase activity assay, B-Raf; format: biochemical; conditions: read-out: activity toward kinase B-Raf, IC50
B-Raf V600E = B-Raf V600E (Homo sapiens, UniProt P15056, V600E); experiment: Kinase activity assay, B-Raf V600E; format: biochemical; conditions: read-out: activity toward kinase B-Raf V600E, IC50
Btk = Btk (Homo sapiens, UniProt Q06187); experiment: Kinase activity assay, Btk
Fms = Fms (Homo sapiens, UniProt P07333); experiment: Kinase activity assay, Fms
Kdr = Kdr (Homo sapiens, UniProt P35968); experiment: Kinase activity assay, Kdr
Chain of Kdr (P35968 20-1356): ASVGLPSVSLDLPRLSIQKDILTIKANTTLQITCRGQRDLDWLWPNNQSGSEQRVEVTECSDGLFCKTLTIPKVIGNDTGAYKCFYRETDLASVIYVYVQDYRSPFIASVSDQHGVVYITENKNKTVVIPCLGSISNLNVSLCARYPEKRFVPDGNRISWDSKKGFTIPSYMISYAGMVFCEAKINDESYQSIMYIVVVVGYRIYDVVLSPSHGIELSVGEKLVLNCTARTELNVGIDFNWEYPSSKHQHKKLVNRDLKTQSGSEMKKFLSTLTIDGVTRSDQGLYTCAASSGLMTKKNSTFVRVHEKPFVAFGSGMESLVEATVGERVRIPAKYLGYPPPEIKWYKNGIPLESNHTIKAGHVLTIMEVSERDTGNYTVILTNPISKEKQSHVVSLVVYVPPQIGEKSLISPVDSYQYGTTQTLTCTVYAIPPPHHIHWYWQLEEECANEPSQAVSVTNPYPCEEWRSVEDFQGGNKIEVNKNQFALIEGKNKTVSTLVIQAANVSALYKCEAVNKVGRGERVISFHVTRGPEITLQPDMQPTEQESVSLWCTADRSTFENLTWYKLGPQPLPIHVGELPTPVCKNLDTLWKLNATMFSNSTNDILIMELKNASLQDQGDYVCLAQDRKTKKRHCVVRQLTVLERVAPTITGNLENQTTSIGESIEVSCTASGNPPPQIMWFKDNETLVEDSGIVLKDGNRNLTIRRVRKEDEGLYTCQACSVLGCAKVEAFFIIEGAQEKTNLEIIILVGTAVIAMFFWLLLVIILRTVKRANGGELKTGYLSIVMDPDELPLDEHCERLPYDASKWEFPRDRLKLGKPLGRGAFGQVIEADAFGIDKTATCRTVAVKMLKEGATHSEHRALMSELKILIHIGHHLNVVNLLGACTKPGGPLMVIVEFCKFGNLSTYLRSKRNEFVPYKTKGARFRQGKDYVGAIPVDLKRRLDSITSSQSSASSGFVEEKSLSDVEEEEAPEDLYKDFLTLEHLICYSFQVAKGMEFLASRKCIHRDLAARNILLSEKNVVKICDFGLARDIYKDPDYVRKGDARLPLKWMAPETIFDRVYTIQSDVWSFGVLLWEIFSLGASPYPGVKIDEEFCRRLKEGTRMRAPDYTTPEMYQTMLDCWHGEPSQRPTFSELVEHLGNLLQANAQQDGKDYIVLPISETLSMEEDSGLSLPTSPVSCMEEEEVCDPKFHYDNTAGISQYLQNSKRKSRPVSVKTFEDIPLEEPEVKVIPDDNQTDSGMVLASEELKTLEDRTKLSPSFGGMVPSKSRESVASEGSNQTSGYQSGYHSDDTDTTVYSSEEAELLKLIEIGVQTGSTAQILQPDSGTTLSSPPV

Kit = Kit (Homo sapiens, UniProt P10721); experiment: Kinase activity assay, Kit
Src = Src (Homo sapiens, UniProt P12931); experiment: Kinase activity assay, Src
Chain of Src (P12931 whole entry): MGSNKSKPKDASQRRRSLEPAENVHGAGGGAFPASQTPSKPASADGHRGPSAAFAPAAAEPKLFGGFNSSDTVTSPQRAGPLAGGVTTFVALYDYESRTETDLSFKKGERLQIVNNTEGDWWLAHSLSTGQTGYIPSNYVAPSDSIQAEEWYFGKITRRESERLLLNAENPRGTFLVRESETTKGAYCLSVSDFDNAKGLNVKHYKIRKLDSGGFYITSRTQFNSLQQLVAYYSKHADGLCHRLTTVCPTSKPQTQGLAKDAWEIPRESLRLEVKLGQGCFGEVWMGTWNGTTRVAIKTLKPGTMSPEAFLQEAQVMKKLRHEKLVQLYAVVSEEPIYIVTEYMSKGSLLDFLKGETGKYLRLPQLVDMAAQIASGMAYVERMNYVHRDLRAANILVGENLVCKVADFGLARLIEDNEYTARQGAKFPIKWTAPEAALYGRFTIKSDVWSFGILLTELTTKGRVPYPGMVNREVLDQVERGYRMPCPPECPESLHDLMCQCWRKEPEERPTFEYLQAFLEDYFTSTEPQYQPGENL

TEC = molecular target: T1, TEC (Homo sapiens, UniProt P42680); experiment: Kinase activity assay, TEC
T1 sequence (P42680 1-631): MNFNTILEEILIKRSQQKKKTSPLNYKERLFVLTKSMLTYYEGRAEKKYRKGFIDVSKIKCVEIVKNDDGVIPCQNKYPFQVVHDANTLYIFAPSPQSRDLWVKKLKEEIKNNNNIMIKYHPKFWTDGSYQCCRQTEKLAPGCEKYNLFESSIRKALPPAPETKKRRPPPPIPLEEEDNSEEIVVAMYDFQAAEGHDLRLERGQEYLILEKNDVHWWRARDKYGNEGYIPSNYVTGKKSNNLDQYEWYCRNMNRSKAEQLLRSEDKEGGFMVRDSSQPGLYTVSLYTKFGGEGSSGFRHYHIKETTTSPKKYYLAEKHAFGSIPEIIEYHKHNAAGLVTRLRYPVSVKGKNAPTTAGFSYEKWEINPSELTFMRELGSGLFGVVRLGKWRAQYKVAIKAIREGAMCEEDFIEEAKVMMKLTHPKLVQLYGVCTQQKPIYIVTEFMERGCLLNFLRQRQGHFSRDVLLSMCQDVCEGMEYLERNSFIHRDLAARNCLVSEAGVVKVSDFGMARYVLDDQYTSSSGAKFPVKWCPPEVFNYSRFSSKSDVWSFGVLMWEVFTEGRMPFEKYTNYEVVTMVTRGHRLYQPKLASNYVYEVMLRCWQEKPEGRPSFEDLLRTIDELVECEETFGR

A-Raf = molecular target: T2, A-Raf (Homo sapiens, UniProt P10398); experiment: Kinase activity assay, A-Raf
T2 sequence (P10398 1-606): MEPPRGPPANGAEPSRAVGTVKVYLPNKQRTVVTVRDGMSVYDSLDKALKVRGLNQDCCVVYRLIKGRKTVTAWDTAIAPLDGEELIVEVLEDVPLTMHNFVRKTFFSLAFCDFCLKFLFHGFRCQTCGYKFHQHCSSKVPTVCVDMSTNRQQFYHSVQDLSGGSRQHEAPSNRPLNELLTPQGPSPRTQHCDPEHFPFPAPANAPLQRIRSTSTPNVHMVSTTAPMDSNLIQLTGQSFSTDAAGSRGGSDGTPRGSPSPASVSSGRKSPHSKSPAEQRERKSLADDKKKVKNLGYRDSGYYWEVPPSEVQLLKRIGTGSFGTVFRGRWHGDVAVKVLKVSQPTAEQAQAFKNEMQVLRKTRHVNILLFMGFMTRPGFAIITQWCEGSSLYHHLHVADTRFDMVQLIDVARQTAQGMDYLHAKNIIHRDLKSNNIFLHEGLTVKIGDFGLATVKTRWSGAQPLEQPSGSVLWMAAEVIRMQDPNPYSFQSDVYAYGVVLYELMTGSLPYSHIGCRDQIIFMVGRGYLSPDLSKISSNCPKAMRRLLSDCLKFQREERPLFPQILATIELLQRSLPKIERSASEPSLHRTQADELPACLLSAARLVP

C-Raf = C-Raf (Homo sapiens, UniProt P04049); experiment: Kinase activity assay, C-Raf
Chain of C-Raf (P04049 whole entry): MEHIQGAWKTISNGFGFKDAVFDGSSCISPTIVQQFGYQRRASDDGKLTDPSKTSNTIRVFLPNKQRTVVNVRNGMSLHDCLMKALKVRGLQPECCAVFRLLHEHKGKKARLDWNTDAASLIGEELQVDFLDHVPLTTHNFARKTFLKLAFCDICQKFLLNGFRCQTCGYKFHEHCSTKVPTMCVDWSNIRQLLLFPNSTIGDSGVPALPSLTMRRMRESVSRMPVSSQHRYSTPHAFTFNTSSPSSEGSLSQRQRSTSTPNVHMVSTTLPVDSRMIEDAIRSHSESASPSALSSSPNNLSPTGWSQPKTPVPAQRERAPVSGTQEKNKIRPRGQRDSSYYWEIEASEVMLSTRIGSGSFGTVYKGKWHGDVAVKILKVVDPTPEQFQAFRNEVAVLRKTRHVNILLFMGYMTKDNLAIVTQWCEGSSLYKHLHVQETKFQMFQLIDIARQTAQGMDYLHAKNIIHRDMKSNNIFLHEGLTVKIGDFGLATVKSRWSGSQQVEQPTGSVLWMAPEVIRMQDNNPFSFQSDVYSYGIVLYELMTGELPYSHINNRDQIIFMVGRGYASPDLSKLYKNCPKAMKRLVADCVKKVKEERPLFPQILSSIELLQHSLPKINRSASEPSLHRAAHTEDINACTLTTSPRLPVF

MAP4K4 = MAP4K4 (Homo sapiens, UniProt O95819); experiment: Kinase activity assay, MAP4K4
Chain of MAP4K4 (O95819 whole entry): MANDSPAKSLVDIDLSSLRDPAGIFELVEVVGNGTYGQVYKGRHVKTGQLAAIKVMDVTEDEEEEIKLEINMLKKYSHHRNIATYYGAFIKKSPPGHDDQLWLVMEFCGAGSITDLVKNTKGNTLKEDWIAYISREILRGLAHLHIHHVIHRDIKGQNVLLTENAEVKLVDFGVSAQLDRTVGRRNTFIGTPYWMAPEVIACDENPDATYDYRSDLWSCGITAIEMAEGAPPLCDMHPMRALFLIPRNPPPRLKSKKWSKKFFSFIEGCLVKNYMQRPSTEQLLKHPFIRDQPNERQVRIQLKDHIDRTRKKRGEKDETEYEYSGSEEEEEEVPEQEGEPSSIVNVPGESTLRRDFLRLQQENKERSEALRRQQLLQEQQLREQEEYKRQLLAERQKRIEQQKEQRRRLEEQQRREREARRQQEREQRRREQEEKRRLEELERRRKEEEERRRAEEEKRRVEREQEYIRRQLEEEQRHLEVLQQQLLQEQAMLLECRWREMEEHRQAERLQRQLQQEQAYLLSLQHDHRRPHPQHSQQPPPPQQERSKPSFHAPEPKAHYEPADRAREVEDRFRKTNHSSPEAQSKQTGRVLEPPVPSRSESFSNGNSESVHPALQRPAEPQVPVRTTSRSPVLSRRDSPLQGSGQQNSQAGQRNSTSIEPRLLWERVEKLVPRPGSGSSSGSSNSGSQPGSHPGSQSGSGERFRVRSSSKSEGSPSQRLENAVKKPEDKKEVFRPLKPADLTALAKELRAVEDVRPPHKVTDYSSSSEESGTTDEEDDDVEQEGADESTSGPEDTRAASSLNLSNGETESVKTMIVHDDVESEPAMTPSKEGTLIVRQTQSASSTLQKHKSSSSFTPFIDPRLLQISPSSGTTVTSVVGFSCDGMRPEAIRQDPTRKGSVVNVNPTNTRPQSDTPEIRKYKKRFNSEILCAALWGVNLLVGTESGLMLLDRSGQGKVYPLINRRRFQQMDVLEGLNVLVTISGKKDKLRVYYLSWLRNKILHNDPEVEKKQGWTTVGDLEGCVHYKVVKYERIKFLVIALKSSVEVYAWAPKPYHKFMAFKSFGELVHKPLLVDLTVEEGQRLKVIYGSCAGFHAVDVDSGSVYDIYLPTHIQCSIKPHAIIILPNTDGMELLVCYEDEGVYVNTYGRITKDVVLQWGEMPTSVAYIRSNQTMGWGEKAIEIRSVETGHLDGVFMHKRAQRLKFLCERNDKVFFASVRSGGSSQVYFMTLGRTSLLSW

Chain of B-Raf (P15056 whole entry): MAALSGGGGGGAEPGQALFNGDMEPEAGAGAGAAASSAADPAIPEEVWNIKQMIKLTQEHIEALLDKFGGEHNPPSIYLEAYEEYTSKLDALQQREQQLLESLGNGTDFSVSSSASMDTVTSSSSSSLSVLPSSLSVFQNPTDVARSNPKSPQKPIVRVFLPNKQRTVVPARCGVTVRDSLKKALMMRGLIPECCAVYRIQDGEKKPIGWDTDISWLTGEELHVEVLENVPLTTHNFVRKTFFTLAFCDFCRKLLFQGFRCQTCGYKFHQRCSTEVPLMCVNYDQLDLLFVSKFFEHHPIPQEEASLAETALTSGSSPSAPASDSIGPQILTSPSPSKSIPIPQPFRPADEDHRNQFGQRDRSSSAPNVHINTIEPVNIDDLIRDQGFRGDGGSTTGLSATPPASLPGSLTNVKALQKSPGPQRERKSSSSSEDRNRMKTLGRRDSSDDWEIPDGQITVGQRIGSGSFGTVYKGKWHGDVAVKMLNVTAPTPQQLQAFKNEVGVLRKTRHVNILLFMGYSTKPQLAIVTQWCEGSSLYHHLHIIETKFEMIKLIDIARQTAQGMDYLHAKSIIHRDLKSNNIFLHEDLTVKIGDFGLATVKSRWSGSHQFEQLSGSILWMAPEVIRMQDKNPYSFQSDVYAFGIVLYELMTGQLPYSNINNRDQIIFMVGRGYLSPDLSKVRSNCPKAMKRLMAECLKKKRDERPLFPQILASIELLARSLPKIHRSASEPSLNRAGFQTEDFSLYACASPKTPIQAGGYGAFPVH
Chain of B-Raf V600E (P15056 whole entry V600E): as the sequence (P15056 whole entry) above, with V600E counted along it

IC50 (B-Raf) [µM] | IC50 (B-Raf V600E) [µM] | IC50 (Btk) [µM] | IC50 (Fms) [µM] | IC50 (Kdr) [µM] | IC50 (Kit) [µM] | IC50 (Src) [µM] | IC50 (TEC) [µM] | IC50 (A-Raf) [µM] | IC50 (C-Raf) [µM] | IC50 (MAP4K4) [µM] | Structure (SMILES)
≤ 10 | ≤ 10 | ≤ 10 | ≤ 10 | ≤ 10 | ≤ 10 | ≤ 10 | ≤ 10 | ≤ 10 | ≤ 10 | ≤ 10 | COc1ccnc2[nH]cc(C(=O)c3c(F)ccc(NS(=O)(=O)c4cc(F)ccc4F)c3F)c12 [P-2022, N-[2,4-Difluoro-3-(4-methoxy-1H-pyrrolo[2,3-b]pyridine-3-carbonyl)-phenyl]-2,5-difluoro-benzenesulfonamide]
– | – | ≤ 10 | ≤ 10 | ≤ 10 | ≤ 10 | ≤ 10 | ≤ 10 | – | – | ≤ 10 | CS(=O)(=O)c1cccc(-c2cnc3[nH]cc(C(=O)c4cc(NS(=O)(=O)c5cccnc5)ccc4F)c3c2)c1 [P-2138, Pyridine-3-sulfonic acid {4-fluoro-3-[5-(3-methanesulfonyl-phenyl)-1H-pyrrolo[2,3-b]pyridine-3-carbonyl]-phenyl}-amide]
≤ 10 | ≤ 10 | ≤ 10 | ≤ 10 | ≤ 10 | ≤ 10 | ≤ 10 | ≤ 10 | – | ≤ 10 | ≤ 10 | Cn1cc(-c2cnc3[nH]cc(C(=O)c4cc(NS(=O)(=O)c5cccnc5)ccc4F)c3c2)cn1 [P-2140, Pyridine-3-sulfonic acid{4-fluoro-3-[5-(1-methyl-1H-pyrazol-4-yl)-1H-pyrrolo[2,3-b]pyridine-3-carbonyl]-phenyl}-amide]
≤ 10 | – | ≤ 10 | ≤ 10 | ≤ 10 | ≤ 10 | ≤ 10 | ≤ 10 | – | – | ≤ 10 | COc1cnc2[nH]cc(C(=O)c3cccc(NS(=O)(=O)c4cccnc4)c3)c2c1 [P-2142, Pyridine-3-sulfonic acid [3-(5-methoxy-1H-pyrrolo[2,3-b]pyridine-3-carbonyl)-phenyl]-amide]
≤ 10 | – | ≤ 10 | ≤ 10 | ≤ 10 | ≤ 10 | ≤ 10 | ≤ 10 | – | – | ≤ 10 | Cn1cc(-c2cnc3[nH]cc(C(=O)c4cccc(NS(=O)(=O)c5cccnc5)c4)c3c2)cn1 [P-2144, Pyridine-3-sulfonic acid {3-[5-(1-methyl-1H-pyrazol-4-yl)-1H-pyrrolo[2,3-b]pyridine-3-carbonyl]-phenyl}-amide]
≤ 10 | ≤ 10 | ≤ 10 | ≤ 10 | ≤ 10 | ≤ 10 | ≤ 10 | ≤ 10 | ≤ 10 | ≤ 10 | – | C#Cc1cnc2[nH]cc(C(=O)c3c(F)ccc(NS(=O)(=O)CCC)c3F)c2c1 [P-2260, Propane-1-sulfonic acid [3-(5-ethynyl-1H-pyrrolo[2,3-b]pyridine-3-carbonyl)-2,4-difluoro-phenyl]-amide]
≤ 10 | ≤ 10 | ≤ 10 | – | ≤ 10 | ≤ 10 | ≤ 10 | ≤ 10 | ≤ 10 | ≤ 10 | – | Cc1cnc2[nH]cc(C(=O)c3c(F)ccc(NS(=O)(=O)N4CCCC4)c3F)c2c1 [P-2379, Pyrrolidine-1-sulfonic acid [2,4-difluoro-3-(5-methyl-1H-pyrrolo[2,3-b]pyridine-3-carbonyl)-phenyl]-amide]
≤ 10 | ≤ 10 | ≤ 10 | ≤ 10 | ≤ 10 | ≤ 10 | ≤ 10 | ≤ 10 | – | ≤ 10 | ≤ 10 | CN(C)S(=O)(=O)Nc1ccc(F)c(C(=O)c2c[nH]c3nccc(Cl)c23)c1F [P-2383, N,N-dimethylamino-sulfonic acid [3-(4-chloro-1H-pyrrolo[2,3-b]pyridine-3-carbonyl)-2,4-difluoro-phenyl]-amide]
≤ 10 | ≤ 10 | ≤ 10 | – | ≤ 10 | – | ≤ 10 | ≤ 10 | ≤ 10 | ≤ 10 | – | N#Cc1ccnc2[nH]cc(C(=O)c3c(F)ccc(NS(=O)(=O)N4CCCC4)c3F)c12 [P-2394, Pyrrolidine-1-sulfonic acid [3-(4-cyano-1H-pyrrolo[2,3-b]pyridine-3-carbonyl)-2,4-difluoro-phenyl]-amide]
≤ 10 | ≤ 10 | ≤ 10 | ≤ 10 | ≤ 10 | ≤ 10 | ≤ 10 | ≤ 10 | – | ≤ 10 | ≤ 10 | CS(=O)(=O)c1cccc(-c2cnc3[nH]cc(C(=O)c4cc(NS(=O)(=O)C5CCCCC5)ccc4F)c3c2)c1 [P-2444, Cyclohexanesulfonic acid {4-fluoro-3-[5-(3-methanesulfonyl-phenyl)-1H-pyrrolo[2,3-b]pyridine-3-carbonyl]-phenyl}-amide]
– | ≤ 10 | ≤ 10 | ≤ 10 | ≤ 10 | ≤ 10 | ≤ 10 | ≤ 10 | – | ≤ 10 | ≤ 10 | CS(=O)(=O)Nc1cccc(-c2cnc3[nH]cc(C(=O)c4cc(NS(=O)(=O)C5CCCCC5)ccc4F)c3c2)c1 [P-2446, Cyclohexanesulfonic acid {4-fluoro-3-[5-(3-methanesulfonylamino-phenyl)-1H-pyrrolo[2,3-b]pyridine-3-carbonyl]-phenyl}-amide]
≤ 10 | ≤ 10 | ≤ 10 | ≤ 10 | ≤ 10 | ≤ 10 | ≤ 10 | ≤ 10 | – | ≤ 10 | ≤ 10 | CS(=O)(=O)Nc1cccc(-c2cnc3[nH]cc(C(=O)c4cc(NS(=O)(=O)C5CCCC5)ccc4F)c3c2)c1 [P-2447, Cyclopentanesulfonic acid {4-fluoro-3-[5-(3-methanesulfonylamino-phenyl)-1H-pyrrolo[2,3-b]pyridine-3-carbonyl]-phenyl}-amide]
– | – | ≤ 10 | ≤ 10 | ≤ 10 | ≤ 10 | ≤ 10 | ≤ 10 | – | – | ≤ 10 | Cc1cnc2[nH]cc(C(=O)c3cc(NS(=O)(=O)C4CCCC4)ccc3F)c2c1 [P-2448, Cyclopentanesulfonic acid [4-fluoro-3-(5-methyl-1H-pyrrolo[2,3-b]pyridine-3-carbonyl)-phenyl]-amide]
– | – | ≤ 10 | ≤ 10 | ≤ 10 | ≤ 10 | ≤ 10 | ≤ 10 | – | – | ≤ 10 | COc1cnc2[nH]cc(C(=O)c3cccc(NS(=O)(=O)C4CCCCC4)c3)c2c1 [P-2460, Cyclohexanesulfonic acid [3-(5-methoxy-1H-pyrrolo[2,3-b]pyridine-3-carbonyl)-phenyl]-amide]
– | ≤ 10 | ≤ 10 | ≤ 10 | ≤ 10 | ≤ 10 | – | ≤ 10 | – | – | ≤ 10 | COc1cnc2[nH]cc(C(=O)c3cccc(NS(=O)(=O)C4CCCC4)c3)c2c1 [P-2464, Cyclopentanesulfonic acid [3-(5-methoxy-1H-pyrrolo[2,3-b]pyridine-3-carbonyl)-phenyl]-amide]
